For one assay, the target named is T1, hERG channel (Homo sapiens, UniProt Q12809).
T1 construct: expressed in transfected cells
The assay is described as follows: Determination of the effect on the hERG channel in CHO cells (whole-cell patch clamp). The following applies: CHO cells stably expressing hERG, room temperature, read-out: IC50 value [µM] for hERG inhibition. The assay is classed as cell-based. Here is the method:
Determination of the effect on the hERG channel in CHO cells
An inhibition of the hERG (human Ether-a-go-go-Related Gene) potassium channel is unwanted because it can lead to dangerous arrhythmias. The effect of compounds of the formula I on the cloned human cardiac hERG channel was evaluated in an in vitro model using a whole-cell patch-clamping technique. CHO (Chinese hamster ovary) cells stably expressing hERG, the potassium channel underlying IKr currents in human hearts, were grown in HAM's F-12 media supplemented with 10 % fetal bovine serum, 1 x penicillin/streptomycin and 500 µg/ml G418 (Invitrogen, Carlsbad, CA, USA) in an atmosphere of 95 % air and 5 % carbon dioxide. Cells used for patch-clamping were seeded on glass or plastic coverslips 12 to 36 hours before use. hERG channel currents were recorded at room temperature using the whole-cell configuration of the patch clamp technique with an Axopatch 200B amplifier (Axon Instruments, Foster City, CA, USA). Briefly, electrodes (3 to 6 MΩ resistance) were fashioned from TW150F glass capillary tubes (World Precision Instruments, Sarasota, FL, USA) and filled with pipette solution (containing 120 mM potassium aspartate, 20 mM potassium chloride, 4 mM adenosine triphosphate disodium salt, 5 mM HEPES, 1 mM magnesium chloride; pH adjusted to 7.2 with potassium hydroxide). hERG currents were initiated by a positive voltage pulse (20 mV) followed by a negative pulse (-40 mV) and were recorded for off-line analyses. Once hERG current from a cell perfused with external solution (containing 130 mM sodium chloride, 5 mM potassium chloride, 2.8 mM sodium acetate, 1 mM magnesium chloride, 10 mM HEPES, 10 mM glucose, 1 mM calcium chloride; pH adjusted to 7.4 with sodium hydroxide) without the test compound, i.e. control solution, was stabilized, the cell was perfused with external solution containing the test compound at specific concentrations. For each concentration from each cell, peak amplitude of the steady-state hERG tail current at -40 mV was measured in picoAmpere (pA). The peak amplitude in pA for each concentration (up to a maximum concentration of 10 µM) was compared with that for the control solution from the same cell and expressed as percent value of the control. From the percent values at multiple concentrations, IC50 values for inhibition of hERG can be determined.
In general terms: The hERG channel carries a current that helps repolarise heart muscle cells.

The subject of a further assay is upper airway. The assay is described as follows: Effect on upper airway collapsibility in the anesthetized pig (negative pressure challenge). Type of assay: in vivo. The conditions noted are these: 100 µg/kg intravenous bolus injection, negative pressure -150 mbar. From the text: Effect on upper airway collapsibility in the pig Pharmacological efficacy against obstructive apneas was investigated in chloralose-urethane anesthetized pigs (weight range 20 to 35 kg), a large-animal model for obstructive apneas. Negative pressure generated by a negative pressure device was applied with a cannula to the upper part of the trachea for at least three breaths so that the upper airway was exposed to the negative pressure generated by the device. This caused an upper airway collapse as in an obstructive apnea in control animals treated with vehicle only, and in animals of the treatment group before the test compound was administered (baseline situation). Different levels of negative pressure were used to cause a collapse of the upper airway (-50 mbar, -100 mbar and -150 mbar). These negative pressure challenges were repeated several times before vehicle or test compound was given, and at regular intervals after administration of vehicle or test compound. Whether the upper airway was collapsed or open, was judged by airflow measurement and by the tracheal pressure in the cannula inserted into the upper trachea. In case the upper airway was collapsed by the negative pressure, airflow to the negative pressure device was close to zero. As a second parameter tracheal pressure approached the negative pressure generated by the device during upper airway collapse. Test compounds were administered by intravenous bolus injection. After administration of an effective test compound the upper airway was open during the negative pressure challenges, i.e. not collapsed, as indicated by airflow to the negative pressure device and the fact that tracheal pressure now approached atmospheric pressure in the inspiratory phase where upper airway muscles are activated. In vehicle-treated controls upper airway collapse occurred at every negative pressure challenge at -50 mbar, -100 mbar and -150 mbar. In Table 17, the time after administration of compounds of the formula I from the examples above is shown during which no upper airway collapse occurred (time of inhibition of collapsibility) at a negative pressure of -150 mbar. […]

T1 sequence (Q12809 whole entry): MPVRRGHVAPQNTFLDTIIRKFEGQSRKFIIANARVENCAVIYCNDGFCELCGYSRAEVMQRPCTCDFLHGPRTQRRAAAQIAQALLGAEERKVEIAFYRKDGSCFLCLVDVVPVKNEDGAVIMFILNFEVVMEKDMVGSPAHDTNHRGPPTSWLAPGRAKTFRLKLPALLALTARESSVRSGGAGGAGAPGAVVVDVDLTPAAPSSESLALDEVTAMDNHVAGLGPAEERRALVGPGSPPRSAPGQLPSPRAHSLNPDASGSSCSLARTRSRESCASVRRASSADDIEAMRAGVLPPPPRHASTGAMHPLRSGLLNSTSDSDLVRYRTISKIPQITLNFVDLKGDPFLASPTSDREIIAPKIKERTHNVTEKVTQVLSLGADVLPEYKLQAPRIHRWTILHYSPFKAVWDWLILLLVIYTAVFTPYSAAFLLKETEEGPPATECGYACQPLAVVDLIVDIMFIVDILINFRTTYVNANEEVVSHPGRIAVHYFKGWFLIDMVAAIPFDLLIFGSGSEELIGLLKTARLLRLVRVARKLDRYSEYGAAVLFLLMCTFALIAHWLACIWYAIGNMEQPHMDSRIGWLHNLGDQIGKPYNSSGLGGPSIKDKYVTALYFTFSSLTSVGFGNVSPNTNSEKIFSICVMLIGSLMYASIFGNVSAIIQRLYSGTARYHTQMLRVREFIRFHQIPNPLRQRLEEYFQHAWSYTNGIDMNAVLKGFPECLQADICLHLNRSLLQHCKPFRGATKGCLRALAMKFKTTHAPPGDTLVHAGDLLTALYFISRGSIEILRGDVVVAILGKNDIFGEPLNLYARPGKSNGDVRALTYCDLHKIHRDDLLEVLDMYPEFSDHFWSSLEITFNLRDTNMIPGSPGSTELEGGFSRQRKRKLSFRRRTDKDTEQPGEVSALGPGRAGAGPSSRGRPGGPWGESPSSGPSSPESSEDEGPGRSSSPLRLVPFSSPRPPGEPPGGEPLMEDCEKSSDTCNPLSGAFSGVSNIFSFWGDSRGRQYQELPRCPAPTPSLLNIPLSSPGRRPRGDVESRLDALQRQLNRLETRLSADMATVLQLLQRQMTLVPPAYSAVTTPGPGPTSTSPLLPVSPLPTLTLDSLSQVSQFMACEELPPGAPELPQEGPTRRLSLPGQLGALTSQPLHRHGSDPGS

For orientation: IC50 means the concentration that gives 50% inhibition. For the molecule `CCOC(=O)[C@H](C)N(C)C(=O)c1cc(C(=O)N[C@H](CC)c2ccccc2)c2n1CCOC2` [16l, (S)-2-{Methyl-[8-((R)-1-phenyl-propylcarbamoyl)-3,4-dihydro-1H-pyrrolo[2,1-c][1,4]oxazine-6-carbonyl]-amino}-propionic acid ethyl ester], the IC50 at hERG channel is above 10 µM. Also, in the assay with upper airway, the “Time of inhibition of collapsibility (at -150 mbar)” value was “for >120 min”.
Regarding `CCOC(=O)CNC(=O)c1cc(C(=O)N[C@H](CC)c2ccccc2)c2n1CCOC2` [16k, {[8-((R)-1-Phenyl-propylcarbamoyl)-3,4-dihydro-1H-pyrrolo[2,1-c][1,4]oxazine-6-carbonyl]-amino}-acetic acid ethyl ester], the IC50 on hERG channel is above 10 µM. The “Time of inhibition of collapsibility (at -150 mbar)” value in the assay on upper airway is “for >240 min”.

For the origin of these results see patent EP2809669B1, “FUSED PYRROLEDICARBOXAMIDES AND THEIR USE AS PHARMACEUTICALS” (SANOFI, priority 2012, dated 2013).
